The subject of this assay is Type IV pigmented epidermal equivalents (SkinEthic reconstructed human epidermis; normal human keratinocytes and melanocytes). As to the kind of experiment: Darkening in pigmented epidermal equivalents (DOPA and Fontana-Mason staining). Format: cell-based. Set-up: key to Score DOPA staining (tyrosinase activity): 0: No change in DOPA staining and in melanin deposition; 1: Minimal increase in DOPA staining and/ or in pigment deposition; 2: Increased DOPA staining and/ or in pigment deposition; 3: Strong increase in DOPA staining and/ or in pigment deposition. The note with it: for Score F & M staining (Pigment deposition) / Score DOPA staining (tyrosinase activity): peptides at 100 μM in PBS, treated three or five days, harvested fourth or sixth day; for Score F & M staining (Pigment deposition): sectioned equivalents F&M stained; for Score DOPA staining (tyrosinase activity): whole equivalents DOPA stained; for Overall change of pigmentation (darkening), in words: peptides at 100 μM, compared with UVB irradiation (0.10 J/cm^2). The method, then: Peptide 1 and Peptide 2 were tested for their ability to induce darkening in pigmented epidermal equivalents. The pigmented epidermal equivalents contain human normal melanocytes, together with normal, human-derived epidermal keratinocytes, which have been cultured to form a multi-layered, highly differentiated model of the human epidermis. Type IV pigmented epidermal equivalents (consists of normal human keratinocytes pooled from variety of phototype skins and normal human melanocytes derived from type IV phototype skin) were treated with test compounds for three or five days and samples were harvested on the fourth or sixth day of the study. The harvested equivalents were stained with DOPA (a substrate for tyrosinase) or with Fontana-Mason (F&M) (Sheenan D C, Hrapckak B B, eds: Theory and practice of Histo-Thchnology (St Louis: C V Mosby, 1980) pp 223-277). F&M staining identifies silver nitrate reducing activity, which, in skin, identifies melanin.
The Epidermal equivalents used were SkinEthic® reconstructed human epidermis from SkinEthic™ Laboratory (Nice, France). UV irradiation was performed with a UVB FS light source in an exposure chamber, with plate covers removed and Phosphate—buffered saline (PBS, from Gibco-BRL, Gaithersburg, Md.) present in the lower chamber. UVB intensity was measured with a UVX radiometer (UVP Inc., San Gabriel, Calif.). Equivalents were treated with 0.1-0.12 J/cm2. […] The peptides were assayed at 100 μM, and were dissolved in PBS.
On the fourth or sixth day of the study, the equivalents were fixed, sectioned and F&M stained, or they were DOPA stained as whole without sectioning, using standard techniques. Images of stained whole or sectioned equivalents were obtained and analyzed with Image Pro Plus 3.0 software (Media Cybernetics, Silver Spring, Md.). Parameters measured were surface area of stained material within melanocyte and keratinocyte and the total surface area of the cells in culture. In all experiments there was no difference between PBS-treated cells and untreated controls. At least three sections per equivalent, three equivalents per experiment were processed. DOPA-stained epidermal equivalents were evaluated for the change in tyrosinase activity. F&M-stained histological sections were evaluated for the change in pigment deposition. Due to the low content of melanin within the equivalent, it was not possible to quantify the level of pigment within melanocytes in F&M stained sections by image analysis. Therefore, we evaluate the pigment change using the scale defined in Table 1.

Consider `CC(C)C[C@H](NC(=O)[C@H](CCCN/C(N)=N/[N+](=O)[O-])NCc1ccc(OC(F)(F)F)cc1)C(N)=O` [Peptide 2], for which the “Score F & M staining (Pigment deposition)” value is 1-2; the “Score DOPA staining (tyrosinase activity)” value is 1-2; the “Overall change of pigmentation (darkening), in words” value is recorded as “able to enhance pigment production”.

With `COc1ccc(CN[C@@H](CCCN/C(N)=N/[N+](=O)[O-])C(=O)N[C@@H](CC(C)C)C(N)=O)cc1` [Peptide 1], the “Score F & M staining (Pigment deposition)” value is given as 1-2; the “Score DOPA staining (tyrosinase activity)” value was 3; the “Overall change of pigmentation (darkening), in words” value is “darkening levels similar to those produced by UVB irradiation”.
